Target: human P2X3 receptor (Homo sapiens (Human), UniProt P56373)
Test: Evaluation of human P2X3 receptor inhibitory activity (Test Example 1-1, FDSS 3000, 96-well, 50 nM ATP)
Type: cell-based
Conditions: human P2X3 receptor in C6BU-1 cells; Test Example 1-1 (compounds I-001 to I-300)
Method: Stably expressing cell line (C6BU-1 cell transfected with human P2X3 receptor gene (GenBank accession number Y07683) was used. The cells were seeded in a 96-well microtiter plate at a concentration of 8000 cells/well and cultured in the medium (7.0% fetal bovine serum, 7.0% horse serum, 1% antibiotic and antifungal in DMEM) for one day at 37° C. under 5% carbon dioxide atmosphere. The medium was replaced with 4 μM Fluo-3-AM solution (20 mM HEPES, 137 mM NaCl, 5.27 mM KCl, 0.9 mM MgCl2, 1.26 mM CaCl2, 5.6 mM D-glucose, 2.5 mM probenecid, 1% BSA, and 0.08% Pluronic F-127, pH 7.5) and incubated at 37° C. under 5% dioxide carbon atmosphere for one hour. The plate was washed with washing buffer (20 mM HEPES, 137 mM NaCl, 5.27 mM KCl, 0.9 mM MgCl2, 1.26 mM CaCl2, 5.6 mM D-glucose, 2.5 mM probenecid, pH7.5), and each well was added with 40 μL of this buffer. The plate was placed in High-Throughput Screening System. FDSS 3000 (Hamamatsu Photonics K.K.). Measurement of fluorescence intensity by FDSS 3000 was started, and 40 μL of DMSO solutions containing different concentrations of the test compound as prepared by dilution with dilution buffer (20 mM HEPES, 137 mM NaCl, 5.27 mM KCl, 0.9 mM MgCl2, 1.26 mM CaCl2, 5.68 mM D-glucose, 2.5 mM probenecid, 0.1% Pluronic F-127, pH7.5) were dispensed to each well through the built-in automatic dispenser. Five minutes after, 50 nM ATP solution (50 μL) prepared by dilution with the dilution buffer was dispensed through the built-in automatic dispenser, and the measurement of fluorescence intensity was continued for 4 min. For each well, the specific maximum fluorescence intensity was calculated as the ratio of the maximum fluorescence intensity after addition of the ATP solution to the fluorescence intensity at the starting of the measurement. The 50% inhibitory concentration (IC50) was calculated under the assumption that the specific maximum fluorescence intensity without test compound is 0% inhibition and that the specific maximum fluorescence intensity when the dilution buffer was added in place of ATP solution is 100% inhibition, to evaluate the inhibitory activity of the test compound. FDSS software (Hamamatsu Photonics K.K.) was used for calculation of the specific maximum fluorescence intensity. IC50 was calculated using Microsoft Excel (Microsoft Corporation) and XLfit (idbs Ltd.)
The data of the compounds I-001 to I-300 are the results by the method mentioned in Test Example 1-1, and the data of the compounds I-301 to I-483 are the results by the method mentioned in Test Example 1-2.

Sequence of human P2X3 receptor (P56373 whole entry): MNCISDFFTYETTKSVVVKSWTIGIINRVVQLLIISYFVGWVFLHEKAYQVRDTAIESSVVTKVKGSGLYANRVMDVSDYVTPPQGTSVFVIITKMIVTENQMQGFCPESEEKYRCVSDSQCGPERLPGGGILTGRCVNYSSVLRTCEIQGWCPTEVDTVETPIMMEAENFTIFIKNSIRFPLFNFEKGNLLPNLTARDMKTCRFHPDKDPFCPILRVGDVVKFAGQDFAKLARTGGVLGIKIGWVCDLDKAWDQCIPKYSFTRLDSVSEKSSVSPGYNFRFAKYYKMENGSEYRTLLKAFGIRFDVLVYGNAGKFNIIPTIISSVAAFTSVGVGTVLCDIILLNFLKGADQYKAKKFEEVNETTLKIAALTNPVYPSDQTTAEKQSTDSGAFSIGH

SMILES | IC50 [nM]
CCn1c(=O)cc(Nc2ccc(Oc3cccc(C(=O)O)c3)nc2)n(Cc2ccc(Cl)cc2)c1=O [Compound I-062] | 49
CCn1c(=O)cc(Nc2ccc(Oc3ccc(C(=O)O)cc3)nc2)n(Cc2ccc(Cl)cc2)c1=O [Compound I-063] | 422
N#Cc1cccc(Oc2ccc(Nc3cc(=O)[nH]c(=O)n3Cc3ccc(Cl)cc3)cc2)n1 [Compound I-064] | 36
CC(=O)Nc1cnc(Nc2ccc(Oc3ccon3)cc2)n(Cc2ccc(Cl)cc2)c1=O [Compound I-065] | 99
NC(=O)c1cccc(Oc2ccc(Nc3cc(=O)[nH]c(=O)n3Cc3ccc(Cl)cc3)cc2)n1 [Compound I-066] | 81
O=C(O)c1cccc(Oc2ccc(Nc3cc(=O)[nH]c(=O)n3Cc3ccc(Cl)cc3)cc2)n1 [Compound I-067] | 34
CC(=O)Nc1cnc(Nc2ccc(Oc3cccnn3)cc2)n(Cc2ccc(Cl)cc2)c1=O [Compound I-069] | 68
CC(=O)Nc1cnc(Nc2ccc(Oc3cccc(F)n3)cc2)n(Cc2ccc(Cl)cc2)c1=O [Compound I-070] | 28
CCc1oc2ccc(Nc3ncc(NC(C)=O)c(=O)n3Cc3ccc(Cl)cc3)cc2c1C [Compound I-071] | 171
CCOC(=O)Cc1c[nH]/c(=N\c2ccc3oc(CC)c(C)c3c2)n(Cc2ccc(Cl)cc2)c1=O [Compound I-072] | 228
CCc1oc2ccc(/N=c3\[nH]cc(C(C)=O)c(=O)n3Cc3ccc(Cl)cc3)cc2c1C [Compound I-073] | 140
CCc1oc2ccc(/N=c3\[nH]cc(CC(=O)O)c(=O)n3Cc3ccc(Cl)cc3)cc2c1C [Compound I-074] | 828
CCn1c(=O)cc(Nc2cnc(Oc3cccc(C(N)=O)c3)cn2)n(Cc2ccc(Cl)cc2)c1=O [Compound I-076] | 432
CCc1oc2ccc(Nc3ncc(NC(=O)C4CCOCC4)c(=O)n3Cc3ccc(Cl)cc3)cc2c1C [Compound I-077] | 191
CCc1oc2ccc(Nc3ncc(NC(=O)C4CCOCC4)c(=O)n3Cc3cccc(Cl)c3)cc2c1C [Compound I-078] | 20
CCc1oc2ccc(Nc3ncc(NC(=O)C4CCOCC4)c(=O)n3Cc3ccc(Cl)c(Cl)c3)cc2c1C [Compound I-079] | 58
CCc1oc2ccc(Nc3ncc(NC(=O)C4CCOCC4)c(=O)n3CC3CCCCC3)cc2c1C [Compound I-080] | 20
CCc1oc2ccc(Nc3ncc(NC(=O)C4CCOCC4)c(=O)n3C[C@H]3CC[C@H](C)CC3)cc2c1C [Compound I-082] | 9
CCn1c(=O)cc(Nc2cnc(Oc3cccc(C(=O)O)c3)cn2)n(Cc2ccc(Cl)cc2)c1=O [Compound I-083] | 168

SMILES | IC50 [nM]
CCc1oc2ccc(/N=c3\[nH]cc(CC(N)=O)c(=O)n3Cc3ccc(Cl)cc3)cc2c1C [Compound I-084] | 103
O=C(Nc1cnc(Nc2ccc(Oc3ccon3)cc2)n(Cc2ccc(Cl)cc2)c1=O)C1CCOCC1 [Compound I-086] | 2
CCc1c[nH]/c(=N\c2ccc(Oc3ncc(C(=O)O)s3)cc2)n(Cc2ccc(Cl)cc2)c1=O [Compound I-087] | 29
CCC(=O)Nc1c[nH]/c(=N\c2ccc(Oc3ccon3)cc2)n(Cc2ccc(Cl)cc2)c1=O [Compound I-088] | 49
CCC(=O)Nc1c[nH]/c(=N\c2ccc(Oc3ccc(CO)nn3)cc2)n(Cc2ccc(Cl)cc2)c1=O [Compound I-089] | 17
CCC(=O)Nc1c[nH]/c(=N\c2ccc(Oc3cccc(F)n3)cc2)n(Cc2ccc(Cl)cc2)c1=O [Compound I-090] | 11
CCC(=O)Nc1c[nH]/c(=N\c2ccc(Oc3ccc(C(=O)OC)nc3)cc2)n(Cc2ccc(Cl)cc2)c1=O [Compound I-091] | 3
CCC(=O)Nc1c[nH]/c(=N\c2ccc(Oc3ccc(C(=O)O)nc3)cc2)n(Cc2ccc(Cl)cc2)c1=O [Compound I-092] | 19
CCC(=O)Nc1c[nH]/c(=N\c2ccc(Oc3cccc(C(N)=O)n3)cc2)n(Cc2ccc(Cl)cc2)c1=O [Compound I-093] | 9
CCC(=O)Nc1c[nH]/c(=N\c2ccc(Oc3cnc(C(=O)O)cn3)cc2)n(Cc2ccc(Cl)cc2)c1=O [Compound I-094] | 10
CCC(=O)Nc1c[nH]/c(=N\c2ccc(Oc3ccc(C(N)=O)nc3)cc2)n(Cc2ccc(Cl)cc2)c1=O [Compound I-095] | 8
CCOC(=O)c1c[nH]/c(=N\c2ccc(Oc3ccon3)cc2)n(Cc2ccc(Cl)cc2)c1=O [Compound I-096] | 64
CCC(=O)Nc1c[nH]/c(=N\c2ccc(Oc3cnc(C(N)=O)cn3)cc2)n(Cc2ccc(Cl)cc2)c1=O [Compound I-097] | 5
CCC(=O)Nc1c[nH]/c(=N\c2ccc(Oc3ccnc(C(=O)OC)c3)cc2)n(Cc2ccc(Cl)cc2)c1=O [Compound I-098] | 11
O=C(O)c1c[nH]/c(=N\c2ccc(Oc3ccon3)cc2)n(Cc2ccc(Cl)cc2)c1=O [Compound I-099] | 534
NC(=O)c1c[nH]/c(=N\c2ccc(Oc3ccon3)cc2)n(Cc2ccc(Cl)cc2)c1=O [Compound I-100] | 32
O=C(NCCO)c1c[nH]/c(=N\c2ccc(Oc3ccon3)cc2)n(Cc2ccc(Cl)cc2)c1=O [Compound I-101] | 71
CCc1oc2ccc(/N=c3\[nH]cc(CC(C)=O)c(=O)n3Cc3ccc(Cl)cc3)cc2c1C [Compound I-102] | 267
CCc1oc2ccc(/N=c3\[nH]cc(CC(C)(C)O)c(=O)n3Cc3ccc(Cl)cc3)cc2c1C [Compound I-103] | 144

SMILES | IC50 [nM]
CCC(=O)Nc1c[nH]/c(=N\c2ccc(Oc3cccc(C(=O)O)n3)cc2)n(Cc2ccc(Cl)cc2)c1=O [Compound I-104] | 3
CCC(=O)Nc1c[nH]/c(=N\c2ccc(Oc3ccnc(C(=O)O)c3)cc2)n(Cc2ccc(Cl)cc2)c1=O [Compound I-105] | 5
CCC(=O)Nc1c[nH]/c(=N\c2ccc(Oc3ccnc(C(N)=O)c3)cc2)n(Cc2ccc(Cl)cc2)c1=O [Compound I-106] | 7
CCOC(=O)c1c[nH]/c(=N\c2ccc(Oc3ncccc3F)cc2)n(Cc2ccc(Cl)cc2)c1=O [Compound I-107] | 29
O=C(O)c1c[nH]/c(=N\c2ccc(Oc3ncccc3F)cc2)n(Cc2ccc(Cl)cc2)c1=O [Compound I-108] | 440
CN(C(=O)C1CCOCC1)c1c[nH]/c(=N\c2ccc(Oc3ccon3)cc2)n(Cc2ccc(Cl)cc2)c1=O [Compound I-109] | 34
NC(=O)c1c[nH]/c(=N\c2ccc(Oc3ncccc3F)cc2)n(Cc2ccc(Cl)cc2)c1=O [Compound I-110] | 27
O=C(NCCO)c1c[nH]/c(=N\c2ccc(Oc3ncccc3F)cc2)n(Cc2ccc(Cl)cc2)c1=O [Compound I-111] | 22
CCOC(=O)c1c[nH]/c(=N\c2ccc(Oc3cccc(F)n3)c(C)c2)n(Cc2ccc(Cl)cc2)c1=O [Compound I-112] | 24
COC(=O)[C@@H](C)Cn1c(=O)cc(Nc2ccc(Oc3ccccc3)cc2)n(Cc2ccc(Cl)cc2)c1=O [Compound I-113] | 187
COC(=O)[C@@H](C)Cn1c(=O)cc(Nc2ccc(Oc3ccon3)cc2)n(Cc2ccc(Cl)cc2)c1=O [Compound I-114] | 17
COC(=O)[C@@H](C)Cn1c(=O)cc(Nc2ccc(Oc3ncccc3F)cc2)n(Cc2ccc(Cl)cc2)c1=O [Compound I-115] | 9
COC(=O)[C@@H](C)Cn1c(=O)cc(Nc2ccc(Oc3cccc(F)n3)cc2)n(Cc2ccc(Cl)cc2)c1=O [Compound I-116] | 6
C[C@@H](Cn1c(=O)cc(Nc2ccc(Oc3ccccc3)cc2)n(Cc2ccc(Cl)cc2)c1=O)C(=O)O [Compound I-117] | 26
CCC(=O)Nc1c[nH]/c(=N\c2ccc(Oc3ccc(CO)nc3)cc2)n(Cc2ccc(Cl)cc2)c1=O [Compound I-118] | 17
C[C@@H](Cn1c(=O)cc(Nc2ccc(Oc3ncccc3F)cc2)n(Cc2ccc(Cl)cc2)c1=O)C(=O)O [Compound I-119] | 8
C[C@@H](Cn1c(=O)cc(Nc2ccc(Oc3cccc(F)n3)cc2)n(Cc2ccc(Cl)cc2)c1=O)C(=O)O [Compound I-120] | 6
C[C@@H](Cn1c(=O)cc(Nc2ccc(Oc3ccon3)cc2)n(Cc2ccc(Cl)cc2)c1=O)C(=O)O [Compound I-121] | 26
COC(=O)[C@@H](C)Cn1c(=O)cc(Nc2ccc(Oc3cccc(C#N)n3)c(F)c2)n(Cc2ccc(Cl)cc2)c1=O [Compound I-122] | 3

Source: patent publication US9550763B2, “Heterocyclic ring and carbocyclic derivative” (Shionogi & Co., Ltd., priority 2012, dated 2017)
